Where “and” joins values, the source holds several entries; their conditions need not be identical. Identical values can stand only once.
Legend:
[1] = Solid-liquid equilibrium temperature; details: Crystal, visual observation
[2] = Liquid, Falling or rolling sphere viscometry

CCCCCCCCCCCCCCCCCCCC [eicosane]
[1]
Details	Solid-liquid equilibrium temperature [K]
21600 kPa	315.6
61500 kPa	325.3
105500 kPa	334.8
153800 kPa	344.6
218800 kPa	355.9
263800 kPa	364.3

[2]
Details	viscosity
325.8 K, 6700 kPa	3.184 mPa·s and 3.193 mPa·s
325.8 K, 14400 kPa	3.511 mPa·s and 3.528 mPa·s
325.8 K, 21300 kPa	3.828 mPa·s
325.8 K, 22300 kPa	3.908 mPa·s
325.8 K, 28700 kPa	4.25 mPa·s
325.8 K, 35500 kPa	4.642 mPa·s
429.3 K, 5500 kPa	0.837 mPa·s
429.3 K, 7400 kPa	0.858 mPa·s
429.3 K, 21800 kPa	1.029 mPa·s
429.3 K, 41800 kPa	1.262 mPa·s
429.3 K, 63000 kPa	1.498 mPa·s and 1.523 mPa·s
429.3 K, 83000 kPa	1.777 mPa·s
429.3 K, 103700 kPa	2.043 mPa·s
429.3 K, 125000 kPa	2.351 mPa·s
429.3 K, 144500 kPa	2.631 mPa·s
429.3 K, 144700 kPa	2.638 mPa·s
429.3 K, 167900 kPa	2.988 mPa·s
429.3 K, 187900 kPa	3.321 mPa·s
429.3 K, 208900 kPa	3.685 mPa·s
429.3 K, 228600 kPa	4.04 mPa·s
429.3 K, 243100 kPa	4.327 mPa·s
533.8 K, 6200 kPa	0.346 mPa·s
533.8 K, 22900 kPa	0.425 mPa·s
533.8 K, 43300 kPa	0.541 mPa·s
533.8 K, 43500 kPa	0.541 mPa·s
533.8 K, 63200 kPa	0.647 mPa·s
533.8 K, 84300 kPa	0.75 mPa·s
533.8 K, 104400 kPa	0.861 mPa·s
533.8 K, 125000 kPa	0.977 mPa·s
533.8 K, 146100 kPa	1.097 mPa·s
533.8 K, 165900 kPa	1.199 mPa·s
533.8 K, 187300 kPa	1.341 mPa·s
533.8 K, 208200 kPa	1.444 mPa·s
533.8 K, 228800 kPa	1.556 mPa·s

CCCCCCCCCCCCCCCC [hexadecane]
[1]
Details	Solid-liquid equilibrium temperature [K]
54300 kPa	303.6
106300 kPa	314.5
158900 kPa	325
210600 kPa	333.9
267700 kPa	344.4

[2]
Details	viscosity
303.9 K, 3300 kPa	2.826 mPa·s
303.9 K, 7300 kPa	2.959 mPa·s
303.9 K, 12900 kPa	3.184 mPa·s
303.9 K, 19000 kPa	3.454 mPa·s
303.9 K, 26800 kPa	3.793 mPa·s
303.9 K, 33600 kPa	4.107 mPa·s
325.7 K, 8100 kPa	1.943 mPa·s
325.7 K, 8300 kPa	1.956 mPa·s
325.7 K, 21500 kPa	2.263 mPa·s
325.7 K, 35600 kPa	2.675 mPa·s
325.7 K, 49300 kPa	3.067 mPa·s
325.7 K, 63600 kPa	3.55 mPa·s
325.7 K, 77500 kPa	4.056 mPa·s
325.7 K, 91800 kPa	4.625 mPa·s
325.7 K, 104100 kPa	5.179 mPa·s
325.7 K, 119200 kPa	5.865 mPa·s
325.7 K, 122700 kPa	6.07 mPa·s
429.1 K, 12800 kPa	0.582 mPa·s and 0.586 mPa·s
429.1 K, 22200 kPa	0.649 mPa·s
429.1 K, 22700 kPa	0.65 mPa·s
429.1 K, 35800 kPa	0.742 mPa·s
429.1 K, 70500 kPa	1.01 mPa·s
429.1 K, 91600 kPa	1.181 mPa·s
429.1 K, 118800 kPa	1.405 mPa·s
429.1 K, 140300 kPa	1.594 mPa·s
429.1 K, 167800 kPa	1.847 mPa·s
429.1 K, 188000 kPa	2.046 mPa·s
429.1 K, 222900 kPa	2.459 mPa·s
533.7 K, 14100 kPa	0.272 mPa·s
533.7 K, 14300 kPa	0.276 mPa·s
533.7 K, 29900 kPa	0.341 mPa·s
533.7 K, 30100 kPa	0.342 mPa·s
533.7 K, 50400 kPa	0.43 mPa·s
533.7 K, 50500 kPa	0.433 mPa·s
533.7 K, 77100 kPa	0.534 mPa·s
533.7 K, 104600 kPa	0.642 mPa·s
533.7 K, 125000 kPa	0.721 mPa·s
533.7 K, 152800 kPa	0.829 mPa·s
533.7 K, 188400 kPa	0.983 mPa·s
533.7 K, 210000 kPa	1.077 mPa·s
533.7 K, 226600 kPa	1.154 mPa·s

CCCCCCCCCCCCCCCCCC [octadecane]
[1]
Details	Solid-liquid equilibrium temperature [K]
59900 kPa	315.2
102800 kPa	324.6
151000 kPa	334.8
205400 kPa	344.7
256400 kPa	354.2

[2]
Details	viscosity
325.6 K, 9800 kPa	2.598 mPa·s
325.6 K, 16400 kPa	2.778 mPa·s
325.6 K, 29600 kPa	3.247 mPa·s
325.6 K, 37200 kPa	3.568 mPa·s
325.6 K, 51000 kPa	4.157 mPa·s
325.6 K, 60500 kPa	4.578 mPa·s
325.6 K, 69000 kPa	4.98 mPa·s
325.6 K, 70800 kPa	5.095 mPa·s
428.9 K, 6800 kPa	0.685 mPa·s
428.9 K, 21900 kPa	0.831 mPa·s
428.9 K, 42100 kPa	1.023 mPa·s
428.9 K, 63400 kPa	1.232 mPa·s
428.9 K, 84300 kPa	1.446 mPa·s
428.9 K, 104900 kPa	1.649 mPa·s
428.9 K, 125500 kPa	1.878 mPa·s
428.9 K, 147800 kPa	2.125 mPa·s
428.9 K, 168000 kPa	2.392 mPa·s
428.9 K, 188600 kPa	2.65 mPa·s
428.9 K, 209600 kPa	2.928 mPa·s
428.9 K, 230000 kPa	3.207 mPa·s
428.9 K, 243100 kPa	3.396 mPa·s
533.9 K, 9200 kPa	0.303 mPa·s
533.9 K, 9500 kPa	0.305 mPa·s
533.9 K, 15200 kPa	0.336 mPa·s
533.9 K, 22500 kPa	0.38 mPa·s
533.9 K, 44600 kPa	0.497 mPa·s
533.9 K, 64000 kPa	0.579 mPa·s
533.9 K, 85700 kPa	0.686 mPa·s
533.9 K, 105900 kPa	0.784 mPa·s
533.9 K, 126600 kPa	0.88 mPa·s
533.9 K, 147600 kPa	0.975 mPa·s and 0.985 mPa·s
533.9 K, 167700 kPa	1.077 mPa·s
533.9 K, 188600 kPa	1.201 mPa·s
533.9 K, 209100 kPa	1.313 mPa·s
533.9 K, 229300 kPa	1.411 mPa·s
533.9 K, 242900 kPa	1.491 mPa·s
